IC50 data for 30 compounds are collected here from patent publication US20260166039A1 (SCHRÖDINGER, INC., priority 2022, published 2026).

Read-outs that look alike come from different tables or passages of the source. Where only a bound is given, the exact number is not on record here.

In general, IC50 refers to the concentration at which inhibition is half-maximal.

In one assay the target is T1, Wee1 kinase domain (Homo sapiens, UniProt P30291).
T1 construct: Wee1 kinase domain was purchased from Carna (catalog #05-177); purchased Carna 05-177
Put plainly: Wee1 Kinase Biochemical Assay (ADP-Glo). To be noted: 15 uM ATP. The gist of the method: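 1 nM enzyme; 15 uM ATP; 2 ng/mL poly(Lys,Tyr 4:1); 40 mM Tris-HCl, 20 mM MgCl2, 0.1 mg/mL BSA, 2 mM DTT; 4 h, 25 °C; ADP-Glo; % inhibition vs DMSO and saturating positive-control wells.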

In assay [1] the test system is phosphorylation of Cdc2 Y15 (Wee1 substrate) in A427 cells. In words: Phosphorylated Cdc2 MSD Electrochemiluminescence Assay. It counts as cell-based. To be noted: Homo sapiens. The gist of the method:
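A427 cells (RPMI 1640, 10% FBS) treated 20 h after plating with 3-fold serial compound dilutions, in duplicate, 37 °C, 5% CO2; total incubation 6 h. Lysate Cdc2 pY15 read by MSD electrochemiluminescence sandwich immunoassay; % remaining signal normalised to DMSO (high) and reference Wee1 inhibitor (low) controls.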

Setting [2] is: class symbols, 1 nM Wee1 enzyme, 4 hours at 25° C.
Where [3] appears, read: A-427, class symbols, read-out: A427 pCDC2 MSD IC50.

T1 sequence (P30291 299-569 limits assumed): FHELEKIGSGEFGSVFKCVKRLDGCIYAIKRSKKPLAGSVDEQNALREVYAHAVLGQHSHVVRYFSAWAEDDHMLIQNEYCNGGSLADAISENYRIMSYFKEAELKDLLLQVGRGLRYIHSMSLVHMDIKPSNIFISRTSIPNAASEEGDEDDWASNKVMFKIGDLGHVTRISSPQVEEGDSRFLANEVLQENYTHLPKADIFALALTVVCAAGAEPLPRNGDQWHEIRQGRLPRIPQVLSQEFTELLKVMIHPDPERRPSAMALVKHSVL

As to `CNCc1cccc(N2c3nc(Nc4ccc(N5CCC(F)(F)C5)cc4)ncc3[C@@]3(C)COC(C)(C)C[C@@H]23)n1` (single isomer, unassigned) [Example 22], the IC50 against Wee1 kinase domain (Wee1 kinase domain, ADP-Glo) was less than 10 nM; in assay [1] (A-427, pCDC2 MSD), 100 to 1000 nM.

As for `CNCc1cccc(N2c3nc(Nc4ccc([C@@H]5CNC(=O)C5)cc4)ncc3[C@@]3(C)COC(C)(C)C[C@@H]23)n1` (single isomer, unassigned) [Example 63], the half-inhibitory concentration (IC50) at Wee1 kinase domain (Wee1 kinase domain, ADP-Glo) is less than 10 nM; in assay [1] (A-427, pCDC2 MSD), 100 to 1000 nM.

In the case of `CN=[S@@](C)(=O)c1cccc(N2c3nc(Nc4ccc(N5CC6(CN(C)C6)C5)cc4)ncc3[C@@]3(C)COC(C)(C)C[C@@H]23)n1` [Example 771, (S)-methyl(methylimino)(6-((4bR,8aR)-4b,7,7-trimethyl-2-((4-(6-methyl-2,6-diazaspiro[3.3]heptan-2-yl)phenyl)amino)-4b,7,8,8a-tetrahydropyrano[3′,4′:4,5]pyrrolo[2,3-d]pyrimidin-9(5H)-yl)pyridin-2-yl)-16-sulfanone], the values for the IC50 (against Wee1 kinase domain (setting [2]); in assay [1] (setting [3])) were less than 10 nM and 100 to 1000 nM, respectively.

Consider `CC1(C)C[C@H]2N(c3cccc(N=S(C)(C)=O)n3)c3nc(Nc4ccc(C(F)F)nn4)ncc3[C@@]2(C)CO1` (single isomer, unassigned) [Example 377], for which the IC50 is less than 10 nM on Wee1 kinase domain (Wee1 kinase domain, ADP-Glo) and 1000 to 10000 nM in assay [1] (A-427, pCDC2 MSD).

Take `CC1(C)C[C@H]2N(c3cccc(N=S(C)(C)=O)n3)c3nc(Nc4ccc(N5CC6(CNC6)C5)cc4)ncc3[C@@]2(C)CO1` (single isomer, unassigned) [Example 494]: the values for the 50% inhibitory concentration (IC50) (against Wee1 kinase domain (setting [2]); in assay [1] (setting [3])) were less than 10 nM and 100 to 1000 nM, respectively.

`C[C@H]1COC(=O)N1c1cccc(N2c3nc(Nc4ccn(C)c(=O)c4)ncc3[C@@]3(C)COC(C)(C)C[C@@H]23)n1` (single isomer, unassigned) [Example 341]: the IC50 was less than 10 nM against Wee1 kinase domain (Wee1 kinase domain, ADP-Glo) and 100 to 1000 nM in assay [1] (A-427, pCDC2 MSD).

Turning to `CN1C[C@@H]2C[C@H]1CN2c1ccc(Nc2ncc3c(n2)N(c2cccc(C4(O)CC4)n2)[C@@H]2CC(C)(C)OC[C@]32C)cc1` [Example 644, 1-(6-((4bR,8aR)-4b,7,7-trimethyl-2-((4-((1S,4S)-5-methyl-2,5-diazabicyclo[2.2.1]heptan-2-yl)phenyl)amino)-4b,7,8,8a-tetrahydropyrano[3′,4′:4,5]pyrrolo[2,3-d]pyrimidin-9(5H)-yl)pyridin-2-yl)cyclopropan-1-ol], the IC50 is less than 10 nM against Wee1 kinase domain (setting [2]) and 100 to 1000 nM in assay [1] (setting [3]).

As to `CNCc1cccc(N2c3nc(Nc4ccc(C5CCOCC5)nc4)ncc3[C@@]3(C)COC(C)(C)C[C@@H]23)n1` (single isomer, unassigned) [Example 56], the IC50 against Wee1 kinase domain (Wee1 kinase domain, ADP-Glo) was less than 10 nM; in assay [1] (A-427, pCDC2 MSD), 100 to 1000 nM.

As to `C[C@H]1COC(=O)N1c1cccc(N2c3nc(Nc4ccc(O[C@@H]5CCN(C)C5)cc4)ncc3[C@@]3(C)COC(C)(C)C[C@@H]23)n1` (single isomer, unassigned) [Example 331], the IC50 at Wee1 kinase domain (Wee1 kinase domain, ADP-Glo) is less than 10 nM; in assay [1] (A-427, pCDC2 MSD) it was 100 to 1000 nM.

Consider `CNCc1cccc(N2c3nc(Nc4ccc(C5CCN(C)CC5)c(C)c4)ncc3[C@@]3(C)COC(C)(C)C[C@@H]23)n1` (single isomer, unassigned) [Example 72], for which the IC50 was less than 10 nM against Wee1 kinase domain (Wee1 kinase domain, ADP-Glo) and 100 to 1000 nM in assay [1] (A-427, pCDC2 MSD).

As to `CN1CC2(C1)CN(c1ccc(Nc3ncc4c(n3)N(c3cccc(N5CCOC5=O)n3)[C@@H]3CC(C)(C)OC[C@]43C)cc1)C2` [Example 707, 3-(6-((4bR,8aR)-4b,7,7-trimethyl-2-((4-(6-methyl-2,6-diazaspiro[3.3]heptan-2-yl)phenyl)amino)-4b,7,8,8a-tetrahydropyrano[3′,4′:4,5]pyrrolo[2,3-d]pyrimidin-9(5H)-yl)pyridin-2-yl)oxazolidin-2-one], the IC50 on Wee1 kinase domain (setting [2]) was less than 10 nM; in assay [1] (setting [3]), 100 to 1000 nM.

With `CN1CC[C@@H]2CN(c3ccc(Nc4ncc5c(n4)N(c4cccc(C(C)(C)O)n4)[C@@H]4CC(C)(C)OC[C@]54C)cc3)C[C@@H]21` (single isomer, unassigned) [Example 437], the IC50 against Wee1 kinase domain (setting [2]) was less than 10 nM; in assay [1] (setting [3]), 100 to 1000 nM.

As for `Cc1cccc(N2c3nc(Nc4ccc(N5CCN(C)CC5)cc4)ncc3[C@@]3(C)COC(C)(C)C[C@@H]23)n1` (single isomer, unassigned) [Example 759], the IC50 against Wee1 kinase domain (setting [2]) is less than 10 nM; in assay [1] (setting [3]), 100 to 1000 nM.

Take `CC1(C)C[C@H]2N(c3cccc([C@@H]4COCCN4)n3)c3nc(Nc4ccc(N5CCOCC5)cc4)ncc3[C@@]2(C)CO1` [Example 734, (4bR,8aR)-4b,7,7-trimethyl-9-(6-((R)-morpholin-3-yl)pyridin-2-yl)-N-(4-morpholinophenyl)-4b,5,7,8,8a,9-hexahydropyrano[3′,4′:4,5]pyrrolo[2,3-d]pyrimidin-2-amine]: the results for the IC50 (on Wee1 kinase domain (setting [2]); in assay [1] (setting [3])) were less than 10 nM and less than 100 nM, respectively.

As to `CN1CC[C@H](n2cc(Nc3ncc4c(n3)N(c3cccc(N=S(C)(C)=O)n3)[C@@H]3CC(C)(C)OC[C@]43C)cn2)C1` (single isomer, unassigned) [Example 198], the IC50 against Wee1 kinase domain (Wee1 kinase domain, ADP-Glo) is less than 10 nM; in assay [1] (A-427, pCDC2 MSD) it was 100 to 1000 nM.

Turning to `C[C@H]1COC(=O)N1c1cccc(N2c3nc(Nc4ccc(C5(C)COC5)cc4)ncc3[C@@]3(C)COC(C)(C)C[C@@H]23)n1` (single isomer, unassigned) [Example 303], the IC50 on Wee1 kinase domain (Wee1 kinase domain, ADP-Glo) is less than 10 nM; in assay [1] (A-427, pCDC2 MSD) it was 100 to 1000 nM.

Regarding `Cn1ccc(Nc2ncc3c(n2)N(c2cccc(N=S(C)(C)=O)n2)[C@@H]2CC(C)(C)OC[C@]32C)cc1=O` (single isomer, unassigned) [Example 363], the IC50 was less than 10 nM at Wee1 kinase domain (Wee1 kinase domain, ADP-Glo) and 100 to 1000 nM in assay [1] (A-427, pCDC2 MSD).

Regarding `CC1(C)C[C@H]2N(c3cccc(C(C)(C)O)n3)c3nc(Nc4ccc(O[C@H]5CCNC5)cc4)ncc3[C@@]2(C)CO1` (single isomer, unassigned) [Example 419], the IC50 is less than 10 nM against Wee1 kinase domain (setting [2]) and less than 100 nM in assay [1] (setting [3]).

`CN1CCC(n2cc(Nc3ncc4c(n3)N(c3cccc(N=S(C)(C)=O)n3)[C@@H]3CC(C)(C)OC[C@]43C)cn2)CC1` (single isomer, unassigned) [Example 102]: the IC50 on Wee1 kinase domain (Wee1 kinase domain, ADP-Glo) is less than 10 nM; in assay [1] (A-427, pCDC2 MSD), 100 to 1000 nM.

For the compound `CN1CC2(C1)CN(c1ccc(Nc3ncc4c(n3)N(c3cccc(N=S(C)(C)=O)n3)[C@@H]3CC(C)(C)OC[C@]43C)cc1)C2` [Example 219, dimethyl((6-((4bR,8aR)-4b,7,7-trimethyl-2-((4-(6-methyl-2,6-diazaspiro[3.3]heptan-2-yl)phenyl)amino)-4b,7,8,8a-tetrahydropyrano[3′,4′:4,5]pyrrolo[2,3-d]pyrimidin-9(5H)-yl)pyridin-2-yl)imino)-l6-sulfanone], the IC50 was less than 10 nM against Wee1 kinase domain (Wee1 kinase domain, ADP-Glo) and 100 to 1000 nM in assay [1] (A-427, pCDC2 MSD).

Take `C[C@@H]1CN(c2ccc(Nc3ncc4c(n3)N(c3cccc(N5C(=O)OC[C@@H]5C)n3)[C@@H]3CC(C)(C)OC[C@]43C)cc2)CCN1C` (single isomer, unassigned) [Example 313]: the IC50 on Wee1 kinase domain (Wee1 kinase domain, ADP-Glo) is less than 10 nM; in assay [1] (A-427, pCDC2 MSD) it was 100 to 1000 nM.

In the case of `CN1[C@@H]2C[C@H]1CN(c1ccc(Nc3ncc4c(n3)N(c3cccc(N=S(C)(C)=O)n3)[C@@H]3CC(C)(C)OC[C@]43C)cc1)C2` (single isomer, unassigned) [Example 506], the figures for the IC50 (at Wee1 kinase domain (setting [2]); in assay [1] (setting [3])) were less than 10 nM and 100 to 1000 nM, respectively.

`C[C@H]1COC(=O)N1c1cccc(N2c3nc(Nc4ccc(N5C[C@H]6C[C@@H]5CN6)cc4)ncc3[C@@]3(C)COC(C)(C)C[C@@H]23)n1` (single isomer, unassigned) [Example 277]: the IC50 on Wee1 kinase domain (Wee1 kinase domain, ADP-Glo) is less than 10 nM; in assay [1] (A-427, pCDC2 MSD) it was 100 to 1000 nM.

Take `CNCc1cccc(N2c3nc(Nc4ccc([C@@H]5CCC(=O)N5C)nc4)ncc3[C@@]3(C)COC(C)(C)C[C@@H]23)n1` (single isomer, unassigned) [Example 96]: the IC50 against Wee1 kinase domain (Wee1 kinase domain, ADP-Glo) is less than 10 nM; in assay [1] (A-427, pCDC2 MSD), 100 to 1000 nM.

In the case of `C[C@H]1COC(=O)N1c1cccc(N2c3nc(Nc4ccc(O[C@H]5CCNC5)cc4)ncc3[C@@]3(C)COC(C)(C)C[C@@H]23)n1` (single isomer, unassigned) [Example 329], the IC50 against Wee1 kinase domain (Wee1 kinase domain, ADP-Glo) was less than 10 nM; in assay [1] (A-427, pCDC2 MSD) it was 100 to 1000 nM.

On to `CN1CCC[C@@H](n2cc(Nc3ncc4c(n3)N(c3cccc(N=S(C)(C)=O)n3)[C@@H]3CC(C)(C)OC[C@]43C)cn2)C1` (single isomer, unassigned) [Example 201], for which the half-inhibitory concentration (IC50) against Wee1 kinase domain (Wee1 kinase domain, ADP-Glo) was less than 10 nM; in assay [1] (A-427, pCDC2 MSD) it was 100 to 1000 nM.

In the case of `CN1CCN(c2ccc(Nc3ncc4c(n3)N(c3cccc(S(C)(=O)=O)n3)[C@@H]3CC(C)(C)OC[C@]43C)cc2)CC1` (single isomer, unassigned) [Example 749], the IC50 against Wee1 kinase domain (setting [2]) is less than 10 nM; in assay [1] (setting [3]), 100 to 1000 nM.

Regarding `CN1CCC(n2cc(Nc3ncc4c(n3)N(c3cccc(N=S(C)(C)=O)n3)[C@@H]3CC(C)(C)OC[C@]43C)cn2)C1` (stereo partly drawn) [Example 196, dimethyl((6-((4bR,8aR)-4b,7,7-trimethyl-2-((1-((R)-1-methylpyrrolidin-3-yl)-1H-pyrazol-4-yl)amino)-4b,7,8,8a-tetrahydropyrano[3′,4′:4,5]pyrrolo[2,3-d]pyrimidin-9(5H)-yl)pyridin-2-yl)imino)-16-sulfanone], the IC50 against Wee1 kinase domain (Wee1 kinase domain, ADP-Glo) is less than 10 nM; in assay [1] (A-427, pCDC2 MSD), 100 to 1000 nM.

Regarding `C[C@H]1COC(=O)N1c1cccc(N2c3nc(Nc4ccc(C(C)(C)C)nc4)ncc3[C@@]3(C)COC(C)(C)C[C@@H]23)n1` (single isomer, unassigned) [Example 301], the IC50 on Wee1 kinase domain (Wee1 kinase domain, ADP-Glo) is less than 10 nM; in assay [1] (A-427, pCDC2 MSD), 1000 to 10000 nM.

`CNCc1cccc(N2c3nc(Nc4ccc(N5CCOCC5)c(Cl)c4)ncc3[C@@]3(C)COC(C)(C)C[C@@H]23)n1` (single isomer, unassigned) [Example 14]: the IC50 against Wee1 kinase domain (Wee1 kinase domain, ADP-Glo) is less than 10 nM; in assay [1] (A-427, pCDC2 MSD) it was 100 to 1000 nM.
